Measured values as given in patent US20240335470A1, “CAR T CELLS FOR TREATING CD19+, CD20+ OR CD22+ TUMORS OR B-CELL DERIVED AUTO-IMMUNE DISEASES” (OSPEDALE PEDIATRICO BAMBINO GESU', priority 2020, published 2024).

Legend:
iC9.CAR.CD19 DAUDI cells = experiment: In vitro activation of iC9 by AP1903, DAUDI (FACS, qPCR); assay type: cell-based, human; details: 20 nM AP1903
Experimental: (§1) To induce the in vitro activation of iC9, cells were treated once with 20 nM of AP1903 (Medchemexpress, Cat. HY-16046). The percentage of CAR+ cells after the AP1903 treatment was evaluated by FACS at the indicated time points. […] Control cohort was infused with sterile PBS as vehicle solution. Tumor was monitored by weekly IVIS imaging analysis.
(§2) Flow cytometry analysis was performed to determine cell surface antigens expression; monoclonal antibodies for CD45, CD3, CD19, CD22, CD10, CD34 (all from Becton Dickinson, USA) were combined with different fluorescence according to needs. iC9.CAR.CD19 expression was detected using a mAb directed to hCD34 epitope (anti-CD34 QBend-10 PE from R&D System, USA), or CD19 CAR Detection Reagent (Biotin; Miltenyi, Germany). Flow-cytometry analysis was performed using a BD LSRFortessa X-20 cytometer (BD Biosciences, USA) and analyzed by FACSDiva software (BD Biosciences, USA). FACS-sorting on CAR-transduced tumor cell lines was performed on a FACSAria (BD Biosciences, USA).
(§3) The average of vector copy number (VCN) per cell was determined by real-time PCR, using a TaqMan probe designed on the retroviral construct using the Primer Express® software (Applied Biosystems) and reported in Table 2 (iC9 Probe and primers iC9).
(§4) For VCN, each sample was analyzed in triplicate and the average of threshold cycles was used to quantify DNA copies in relation to the mean values of negative control samples. Relative gene expression was calculated using the house-keeping gene ACT1N1 (Hs_02249516 ACT1N1, ThermoFisher Scientific) qPCR was performed employing QuantStudio 12K Flex Real-Time PCR System (ThermoFisher Scientific). For IG/TR PCR-MRD of the DPs, each MRD value was calculated from the corresponding standard curve, and the results were normalized for values of the housekeeping Albumin gene. […]

iC9.CAR.CD19 RAJI cells = experiment: In vitro activation of iC9 by AP1903, RAJI (qPCR); assay type: cell-based, human; details: 20 nM AP1903
Experimental: as §1, §3, §4

[1] = tested on: iC9.CAR.CD19 NALM-6 cells; experiment: In vitro activation of iC9 by AP1903, NALM-6 (qPCR); assay type: cell-based, human; details: 20 nM AP1903
Experimental: as §1, §3, §4

[2] = tested on: DAUDI, RAJI and NALM-6 iC9.CAR+ cells; experiment: In vitro activation of iC9 by AP1903, all cellular models (FACS, VCN); assay type: cell-based, human
Experimental: as §1, §2, §3, §4

[3] = tested on: iC9.CAR.CD19LH-DAUDI cells; experiment: NSG xenograft, iC9.CAR.CD19LH-DAUDI, iC9 activation by AP1903; assay type: in vivo, NSG mice
Experimental: Schematic representation of the experimental design, with iC9.CAR.CD19LH positive FF-Luciferase positive DAUDI cells infused at day-3. At Day 0, mice were evaluated for leukemia engraftment and treated with 100 μg/mouse of AP1903 from day 0 to day 28. (B) Bioluminescence images of each control untreated mouse and each AP1903 treated mouse. Mice were monitored for more than 30 days after AP1903 withdrawal (C) Bioluminescence values over time for each treated mouse in the two cohorts, un-treated (black lines) or AP1903 treated (dotted line) mice. (D) Kaplan-Meier survival curve analysis of leukaemia-bearing mice untreated (black line) or AP1903 treated (blue line). ****p-value=<0.00001. The only mouse (#20) showing a persisting positive signal at IVIS analysis after AP1903 administration was sacrificed at day 35 together with a negative control (#11) and a positive control (mouse not exposed to AP1903 administration, #6), to characterize the leukemia cells.
as §1

iC9-T cells = details: patients with GVHD after haploidentical iC9-T cells infusion; cited from earlier work

## CC[C@H](C(=O)N1CCCC[C@H]1C(=O)O[C@H](CCc1ccc(OC)c(OC)c1)c1cccc(OCC(=O)NCCNC(=O)COc2cccc([C@@H](CCc3ccc(OC)c(OC)c3)OC(=O)[C@@H]3CCCCN3C(=O)[C@@H](CC)c3cc(OC)c(OC)c(OC)c3)c2)c1)c1cc(OC)c(OC)c(OC)c1 [AP1903]
iC9.CAR.CD19 DAUDI cells; FIG. 8E
  re-expansion of iC9.CAR+ leukemic cells on prolonged culture: not associated to re-expansion
iC9.CAR.CD19 DAUDI cells; threshold value, FIG. 10E
  MFI of CAR expression in AP1903 treated cells: 142±22
iC9.CAR.CD19 DAUDI cells; DAUDI cells
  transgene (TG) positivity in remaining cells after AP1903 exposure (qPCR): 22.8%
iC9.CAR.CD19 RAJI cells
  transgene (TG) positivity in remaining cells after AP1903 exposure (qPCR): 18.6%
[1]
  transgene (TG) positivity in remaining cells after AP1903 exposure (qPCR): 0.6%
[2]; 20 nM AP1903, 6 hours
  percentage of CAR+ leukemic cells: significant reduction in the percentage of CAR+ leukemic cells
[2]; 20 nM AP1903, FIG. 8E, 10B, 10D
  CD19 antigen detection on cells remaining after AP1903: completed re-established detection of CD19 antigen
[2]; across all the considered cellular models, 20 nM, FIG. 10F
  average of VCN threshold in AP1903 treated B cells: 0.1±0.1
[3]; AP1903 100 μg/mouse i.p. day 1 to day 28
  complete CAR+ leukemia eradication, number of mice: 9 out of 10
[3]; AP1903 100 μg/mouse i.p., even after drug suspension, to day 63
  survival of treated mice: 100%
[3]; until day 63 (endpoint of the experiment)
  leukemia recurrence: no mice showing leukemia recurrence
iC9-T cells
  residual iC9-T cells after AP1903 administration: 1%
